Assay [1] concerns Leishmania major promastigotes (MHOM/UZ/91/PM2). In words: Analysis of in vitro anti-leishmanial activity (growth inhibition of L. major/egfp promastigotes, fluorescence). The settings on record: 25° C., 72 h, inhibition with Amphotericin B (positive control) defined as 100%, FIG. 9. It counts as cell-based. From the text:
The compounds represented by formulas (1) to (6), which had been isolated by the procedure described above, were subjected to an analysis of the physiological activity under the conditions that are described below. Leishmania major promastigotes (MHOM/UZ/91/PM2) were selected as the Leishmania protozoa, and a L. major/egfp promastigotes in which a fluorescent protein egfp gene had been introduced was used. The compounds mentioned above were used as samples. Thus, the growth inhibition rate was determined under the following conditions.
Promastigotes of transgenic Leishmania major (MHOM/UZ/91/PM2) expressing enhanced green fluorescent protein (L. major/egfp) were maintained at 25° C. in 199 medium (NISSUI Pharmaceutical, Tokyo, Japan) containing 10% fetal bovine serum, 25 mM Hepes buffer (MP Biomedicals, LLC) and 10 μg/mL […] (SIGMA-ALDRICH, inc., USA). […] Thereafter, fluorescence signals of L. major/egfp promastigotes were measured with a fluorescence microplate reader (Fluoroscan Ascent FL, Dainippon. Pharmaceutical Co., Osaka, Japan) with excitation at 485 nm and emission at 538 nm. […]

The next assay relates to L. major PM2. In words: Analysis of in vivo anti-leishmanial activity (leishmaniasis mouse model). Particulars: mice infected with 1×10^7 promastigotes of L. major PM2; 200 μg by peritoneal injection once a day for three weeks; size of ulcer, antibody titer in blood, protozoan DNA in blood (FIG. 10-12). As to the method:
In order to evaluate the in vivo anti-leishmanial activity of the compound represented by formula (3), which had been isolated by the procedure described above, a leishmaniasis mouse model was used to investigate the therapeutic effect. Six-week old mice ([…], male, 6 animals per group) were infected with 1×10^7 cells of cultured promastigotes of L. major PM2. From the day after the infection day, the compound represented by the formula (3) was administered to each specimen in an amount of 200 μg by peritoneal injection. The administration schedule was such that the compound was continuously administered once a day for three weeks. Further, as control, the same analysis was carried out also for a treatment group to which Amphotericin B was administered, and for a treatment group to which none was administered.

The record followed here is patent US8809555B2, “Anti-leishmanial compound and anti-leishmanial drug” (Aoyama Gakuin Educational Foundation, priority 2010, dated 2014).

The structures appear in SMILES notation.

As to `CC(C)=CCC/C(C)=C/CC/C(C)=C/CC/C(C)=C/CC1(CC(=O)O)CC(=O)C=CC1=O` (centres unmarked) [formula (3)], the growth inhibition rate result in assay [1] is reported as “almost equal to the growth inhibition rate of Amphotericin B”. For the same compound, the “in vivo anti-leishmanial activity” value in the assay on L. major PM2 is listed as “equal to that of Amphotericin B”.
